# Test results from ChEMBL document CHEMBL3431459, “Roche carnitine palmitoyltransferase modulator screening data (supplementary data associated with the publication CHEMBL2216752)”.
# Tests used:
# [1] = target: T1, Carnitine O-palmitoyltransferase 2, mitochondrial (Homo sapiens, UniProt P23786); assay: (§1) SUPPLEMENTARY: Inhibition of Carnitine palmitoyltransferase 2
# T1 sequence (P23786 whole entry): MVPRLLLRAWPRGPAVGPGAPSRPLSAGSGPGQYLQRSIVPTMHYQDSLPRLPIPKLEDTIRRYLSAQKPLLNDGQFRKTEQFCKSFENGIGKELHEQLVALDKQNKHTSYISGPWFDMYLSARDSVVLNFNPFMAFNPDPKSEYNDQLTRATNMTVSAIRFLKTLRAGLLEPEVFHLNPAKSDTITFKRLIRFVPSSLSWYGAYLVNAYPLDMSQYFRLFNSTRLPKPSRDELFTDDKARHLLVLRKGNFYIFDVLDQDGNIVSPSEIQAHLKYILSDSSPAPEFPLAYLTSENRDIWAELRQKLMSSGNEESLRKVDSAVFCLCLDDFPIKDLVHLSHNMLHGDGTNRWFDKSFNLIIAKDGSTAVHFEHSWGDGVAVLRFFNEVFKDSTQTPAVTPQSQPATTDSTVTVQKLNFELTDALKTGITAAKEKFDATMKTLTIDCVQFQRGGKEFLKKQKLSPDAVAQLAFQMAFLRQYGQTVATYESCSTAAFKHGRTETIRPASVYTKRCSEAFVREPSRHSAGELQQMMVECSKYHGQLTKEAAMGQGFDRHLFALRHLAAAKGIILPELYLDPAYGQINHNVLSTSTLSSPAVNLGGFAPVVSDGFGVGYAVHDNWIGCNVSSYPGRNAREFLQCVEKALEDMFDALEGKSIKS
# [2] = target: T2, Carnitine O-palmitoyltransferase 2, mitochondrial (Rattus norvegicus, UniProt P18886); assay: as §1
# T2 sequence (P18886 whole entry): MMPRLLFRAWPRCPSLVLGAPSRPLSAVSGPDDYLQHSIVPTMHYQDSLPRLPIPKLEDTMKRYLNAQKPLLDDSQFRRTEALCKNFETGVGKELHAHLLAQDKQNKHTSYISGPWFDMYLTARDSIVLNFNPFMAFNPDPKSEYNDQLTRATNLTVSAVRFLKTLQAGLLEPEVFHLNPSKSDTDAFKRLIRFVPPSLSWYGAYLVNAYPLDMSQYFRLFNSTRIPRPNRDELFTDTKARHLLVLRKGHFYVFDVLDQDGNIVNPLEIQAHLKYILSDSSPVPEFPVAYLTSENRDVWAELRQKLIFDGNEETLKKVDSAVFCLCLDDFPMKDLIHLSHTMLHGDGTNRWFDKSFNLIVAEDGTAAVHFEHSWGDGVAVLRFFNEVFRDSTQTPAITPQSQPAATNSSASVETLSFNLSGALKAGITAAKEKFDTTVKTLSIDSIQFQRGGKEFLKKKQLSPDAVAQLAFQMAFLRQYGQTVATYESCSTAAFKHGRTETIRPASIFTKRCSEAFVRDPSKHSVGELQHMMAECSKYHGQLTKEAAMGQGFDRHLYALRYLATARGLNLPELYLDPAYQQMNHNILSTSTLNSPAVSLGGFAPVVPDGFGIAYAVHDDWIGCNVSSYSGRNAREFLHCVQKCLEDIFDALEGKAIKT
# [3] = SUPPLEMENTARY: Lyophilisation Solubility Assay (LYSA); type: physicochemical; conditions: read-out: Kinetic_solubility
# [4] = target: T3, Carnitine O-palmitoyltransferase 1, liver isoform (Rattus norvegicus, UniProt P32198); assay: (§2) SUPPLEMENTARY: Inhibition of Carnitine palmitoyltransferase 1, liver isoform
# T3 sequence (P32198 whole entry): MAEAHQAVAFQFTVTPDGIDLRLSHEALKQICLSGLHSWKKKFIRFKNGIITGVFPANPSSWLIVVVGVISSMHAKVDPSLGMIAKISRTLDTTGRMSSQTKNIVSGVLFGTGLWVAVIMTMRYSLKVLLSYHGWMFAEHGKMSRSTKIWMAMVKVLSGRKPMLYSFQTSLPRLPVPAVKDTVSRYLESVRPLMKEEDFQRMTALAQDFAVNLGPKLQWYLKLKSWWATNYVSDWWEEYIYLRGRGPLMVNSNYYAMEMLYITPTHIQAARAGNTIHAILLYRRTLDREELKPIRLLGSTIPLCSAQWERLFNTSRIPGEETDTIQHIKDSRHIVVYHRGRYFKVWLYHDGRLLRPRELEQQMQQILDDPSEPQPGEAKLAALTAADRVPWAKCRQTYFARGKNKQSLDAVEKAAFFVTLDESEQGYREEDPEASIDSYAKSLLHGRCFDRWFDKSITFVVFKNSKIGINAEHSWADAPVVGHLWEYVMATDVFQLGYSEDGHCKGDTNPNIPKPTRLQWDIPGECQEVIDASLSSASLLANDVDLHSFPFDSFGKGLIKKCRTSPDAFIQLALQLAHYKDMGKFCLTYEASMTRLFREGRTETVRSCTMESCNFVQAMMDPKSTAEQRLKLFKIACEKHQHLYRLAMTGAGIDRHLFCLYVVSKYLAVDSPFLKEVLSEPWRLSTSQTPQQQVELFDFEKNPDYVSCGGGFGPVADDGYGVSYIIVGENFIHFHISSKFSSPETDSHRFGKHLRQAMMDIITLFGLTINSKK
# [5] = target: T4, Carnitine O-palmitoyltransferase 1, liver isoform (Homo sapiens, UniProt P50416); assay: as §2
# T4 sequence (P50416 whole entry): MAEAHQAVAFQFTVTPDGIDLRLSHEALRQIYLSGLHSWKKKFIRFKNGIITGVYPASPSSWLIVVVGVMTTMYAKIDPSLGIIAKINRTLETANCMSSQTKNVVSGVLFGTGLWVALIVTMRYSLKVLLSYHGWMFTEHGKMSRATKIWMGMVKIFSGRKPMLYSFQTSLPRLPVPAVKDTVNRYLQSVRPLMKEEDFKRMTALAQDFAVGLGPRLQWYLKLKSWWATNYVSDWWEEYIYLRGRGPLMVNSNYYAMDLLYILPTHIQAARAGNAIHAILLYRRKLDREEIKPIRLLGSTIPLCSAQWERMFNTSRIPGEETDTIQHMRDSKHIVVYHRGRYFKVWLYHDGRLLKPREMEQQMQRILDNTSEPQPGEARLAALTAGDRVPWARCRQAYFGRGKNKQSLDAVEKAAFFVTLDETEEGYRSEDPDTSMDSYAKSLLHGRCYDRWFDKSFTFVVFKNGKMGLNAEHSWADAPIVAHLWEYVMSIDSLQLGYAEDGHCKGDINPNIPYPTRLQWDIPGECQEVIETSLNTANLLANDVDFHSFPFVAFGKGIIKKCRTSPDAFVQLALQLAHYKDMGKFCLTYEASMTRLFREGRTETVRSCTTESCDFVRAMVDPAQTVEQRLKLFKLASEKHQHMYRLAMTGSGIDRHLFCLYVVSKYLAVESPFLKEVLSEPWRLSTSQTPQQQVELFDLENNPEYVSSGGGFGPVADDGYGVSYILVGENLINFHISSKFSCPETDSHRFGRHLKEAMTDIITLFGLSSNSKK
# [6] = SUPPLEMENTARY: Lipophilicity (log D) Determination by high-throughput shake-flask; type: physicochemical; conditions: octanol/water
# [7] = target: T5, Carnitine O-palmitoyltransferase 1, muscle isoform (Homo sapiens, UniProt Q92523); assay: SUPPLEMENTARY: Inhibition of Carnitine palmitoyltransferase 1, muscle isoform; parameters: species or system Muscle tissue
# T5 sequence (Q92523 whole entry): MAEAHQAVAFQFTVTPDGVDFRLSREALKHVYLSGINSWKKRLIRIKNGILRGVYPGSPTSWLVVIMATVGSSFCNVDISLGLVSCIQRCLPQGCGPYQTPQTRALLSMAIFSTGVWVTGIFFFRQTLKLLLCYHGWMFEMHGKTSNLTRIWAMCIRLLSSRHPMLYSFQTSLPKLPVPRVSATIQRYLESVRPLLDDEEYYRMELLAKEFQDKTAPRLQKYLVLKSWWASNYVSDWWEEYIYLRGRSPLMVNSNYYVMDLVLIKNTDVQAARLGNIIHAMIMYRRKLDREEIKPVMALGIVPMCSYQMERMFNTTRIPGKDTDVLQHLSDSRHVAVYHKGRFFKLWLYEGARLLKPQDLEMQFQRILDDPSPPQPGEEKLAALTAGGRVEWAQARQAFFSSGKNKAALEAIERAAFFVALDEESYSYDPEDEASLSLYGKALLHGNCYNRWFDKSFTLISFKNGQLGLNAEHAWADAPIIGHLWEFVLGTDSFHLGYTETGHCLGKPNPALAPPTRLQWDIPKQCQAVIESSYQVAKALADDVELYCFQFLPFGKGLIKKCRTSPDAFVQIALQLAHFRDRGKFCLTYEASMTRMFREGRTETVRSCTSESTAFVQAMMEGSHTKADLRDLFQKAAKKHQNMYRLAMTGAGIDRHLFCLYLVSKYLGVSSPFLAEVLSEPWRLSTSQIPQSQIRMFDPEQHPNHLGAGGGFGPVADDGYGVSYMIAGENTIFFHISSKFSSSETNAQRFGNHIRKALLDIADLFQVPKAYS
# [8] = SUPPLEMENTARY: PAMPA permeability assay; type: physicochemical; conditions: read-out: Permeability
Compound,IC50 [1] [nM],IC50 [2] [nM],solubility kinetic [3] [µg/mL],IC50 [4] [nM],IC50 [5] [nM],logD [6],IC50 [7] [nM],Papp [8] [×10⁻⁶ cm/s]
O=C(COc1ccccc1)N1CCCC[C@@H]1c1noc(-c2cc[nH]n2)n1,> 100000,> 100000,22,225,221,2.22,> 100000,5.94
O=C([C@H]1CCCCN1C(=O)COc1ccccc1)N1CCc2ccccc2C1,2060,3700,22,596,252,2.97,> 100000,4.18
COc1ccc(Cl)cc1S(=O)(=O)N1CCOc2ccc(C(=O)Nc3ccc(-c4noc(=O)[nH]4)cc3)cc21,> 100000,> 100000,1,152,61,2.22,134,0.93
COc1ccc(Cl)cc1S(=O)(=O)N(C)c1cc(C(=O)Nc2nc(CC(=O)O)cs2)cc2c1OCO2,28400,67500,399,62.5,51.5,-0.12,1160,2.43
O=C(COc1ccccc1)N1CCCC[C@@H]1c1nc(-c2ccc3[nH]ncc3c2)n[nH]1,13900,61500,53,683,87.4,2.71,> 100000,1.64
COc1ccc(Cl)cc1CN(C(=O)C(C)C)c1cc(C(=O)Nc2nc(CC(=O)O)cs2)ccc1Cl,> 100000,> 100000,438,440,236,1.34,2560,3.2
COc1ccc(Cl)cc1S(=O)(=O)N1CCCCc2ccc(C(=O)Nc3nc(CC(=O)O)cs3)cc21,> 100000,> 100000,216,17,47.2,0.54,602,3.46
Cc1nnsc1-c1noc([C@H]2CCCCN2C(=O)COc2ccccc2)n1,> 100000,> 100000,27,1670,293,3.04,> 100000,5.95
O=C1CNc2ccc(-c3nc([C@H]4CCCCN4C(=O)COc4ccccc4)no3)cc2N1,21200,> 100000,23,458,94.1,2.38,> 100000,1.83
Cn1cnc(Br)c1-c1noc([C@H]2CCCCN2C(=O)COc2ccccc2)n1,40500,> 100000,83,250,79.3,2.68,> 100000,5.6
O=C(COc1ccccc1)N1CCCC[C@@H]1c1noc(-c2ccc(Cl)nc2)n1,38200,> 100000,32,254,154,2.98,> 100000,5.17
COc1ccc(Cl)cc1S(=O)(=O)c1cn(C)c2ccc(C(=O)Nc3ccc(C(=O)O)cc3)cc12,579,4270,12,51.8,71.6,2.36,2320,0.47
COc1ccc(Cl)cc1S(=O)(=O)N1CCc2ccc(C#Cc3ccc(C(=O)O)cc3)cc21,> 100000,> 100000,< 1,112,111,3.3,82200,0.26
O=C(COc1ccccc1)N1CCCC[C@@H]1c1nc(-c2cccc(N3CCCS3(=O)=O)c2)no1,> 100000,> 100000,< 1,59.8,59.7,2.82,> 100000,24.5
O=C(O)Cc1ccc(NC(=O)c2ccc3ccn(S(=O)(=O)c4cccc(Cl)c4)c3c2)cc1,> 100000,> 100000,17,86.2,66.8,1.3,1350,2.24
